Measurements taken from US20060084599A1, “Compositions, methods and kits relating to notch signaling” (Maine Medical Center, priority 2003, published 2006).
Marks after values point to notes of the source that are not given here.

Columns and labels:
NCSC populations [1] = experiment: Dosage sensitivity of secondary NCSC to BMP2 and sDl1; type: cell-based, murine; conditions: founders expanded 18 days; BMP2 and sDl1 dose response
Method: It is well established that quantitative changes in the dosage sensitivity of NCSC populations occur in vitro and in vivo during NCSC self-renewal (Kubu et al., 2002, Dev. Biol. 244:199-214; White et al., 1999, Development 126:4351-4363; White et al., 2001, Neuron 29:57-71). In order to resolve whether it was possible to clonally expand stem cell populations without the loss of qualitative or quantitative differentiation potential, it was evaluated whether NCSC population expansion in either a thrombin or a sJ 1 environment was able to maintain the quantitative dosage sensitivity of the NCSC populations to instructive differentiation factors. NCSC clones were expanded with either thrombin, TRAP, or sJ1 for 18 days, the clones dissociated to a clonal density every 6 days to minimize cell-cell interactions, and the p75^+/P0^− cells identified. The dosage sensitivity of secondary NCSC populations to both BMP2 and sDl1 was evaluated using the clonogenic differentiation assay to quantitate the production of neuron-only clones (BMP2) and glial-only clones (sDl1) after day 18.

[2] = test system: NIH 3T3 cell transfectants; experiment: Immunofluorescence microscopy of actin stress fibers and focal adhesion sites; type: cell-based, mouse; conditions: stable NIH 3T3 cell transfectants expressing the ligand
Method: Immunofluorescence Microscopy. Cells were plated on glass coverslips and fixed with 4% (v/v) paraformaldehyde. Actin stress fibers were visualized by FITC-conjugated phalloidin (Sigma), a monoclonal anti-vinculin antibody (Sigma) was used to visualize focal adhesion sites, and a monoclonal anti-β-catenin antibody (BD Transduction Laboratories) and a monoclonal anti-pan cadherin antibody (Sigma) were both used to visualize cell-cell adhesions. Immunofluorescent staining and confocal microscopy were performed as previously described (Small et al., 2001, J. Biol. Chem. 276:32022-32030).

NCSC populations [3] = experiment: Clonogenic differentiation assay of NCSC: ligand pre-incubation, then BMP2 challenge; type: cell-based, mouse; conditions: then 1 ng/ml BMP2 seven days, mean ± SD
Method: Clonogenic assays were performed as described (Stemple et al., 1992, Cell 71:973-985). Briefly, populations of murine NCSC were plated at a clonal density and maintained for a maximum of 14 days in Morrison media supplemented with 15% chick embryo extract (Morrison et al., 1999, Cell 96:737-749). The resulting clones were fixed in an acetic acid:ethanol solution (2:1) and stained with antibodies against peripherin (Chemicon) to detect neurons, smooth muscle actin (Sigma) to detect myofibroblasts, and GFAP (Chemicon) to detect Schwann cells. Clones were scored based on the appearance of just one phenotypic representative. The number and percentage of clones containing neurons only (N), Schwann cells only (S), myofibroblasts only (M), N+S, N+M, N+S+M, and S+M were scored at day 14 unless otherwise stated. The production of each representative phenotype in each individual clone was also scored to complement the clonal population assay.
NCSC Retain Neurogenic capacity in the presence of sJ1. A clonogenic differentiation assay was performed using mouse NSCS populations as described previously (Kubu et al., 2002, Dev. Biol. 244:199-214; Stemple et al., 1992, Cell 71:973-985). The cells were incubated in Stemple media (Stemple et al., 1992) with or without 5 nM sDl1 or 7.5 nM sJ1 for the time periods set forth in Table 1. After the initial incubation period, cells were washed and neuronal differentiation was challenged in the presence of 1 ng/ml BMP2 for an additional seven days. The resulting clones were fixed and stained for detection of neural crest markers. The data disclosed in Table 1 is presented as the percentage of glial-only, neuron-only, and neuron colonies containing either smooth muscle or glial markers as the mean ± standard deviation (SD) of three experiments originating from three independent cell isolations. Note the retention of neurogenic differentiation capacity in sJ1-treated cells (*=p<0.01) compared with the sDl1-treated cells.

[4] = test system: CSL1-dependent transcription; experiment: Dual luciferase reporter assay of CSL1-dependent transcription (Example 2); type: cell-based, murine; conditions: for CSL1-dependent transcription, level relative to control: thrombin on full-length Jagged1 NIH 3T3 transfectants, sJ1 expression, 10 ng/ml exogenous FGF1
Method: Insert-less vector control and sJ1 NIH 3T3 cell transfectants (approximately 3×10^4) were plated on fibronectin-coated (10 μg/cm^2) cell culture dishes and the cells were transiently transfected at approximately 50% confluency with 500 ng of a luciferase construct containing four tandem copies of the CBF1 response element (Small et al., 2001, J. Biol. Chem. 276:32022-32030).
Cotransfection with 100 ng of the TK Renilla (Promega) construct was used as an internal control for transfection efficiency using Fugene 6 (Roche), according to the manufacturer's instructions. Cells were treated with or without 10, […] hours after transfection, harvested 48 hours after the transfection and luciferase/renilla activity measured using the Dual Luciferase Reporter Assay System (Promega). Each experiment was performed in triplicate.

Src = Src pY418 immunoblot; type: cell-based, mouse; conditions: stable NIH 3T3 cell transfectants expressing the ligand
Method: Immunoblot Analysis. Cell lysates from insert-less vector sDl1 and sJ1 NIH 3T3 cell transfectants were prepared in 20 mM Tris HCl, pH 7.5, containing 300 mM sucrose, 60 mM—KCl, 15 mM NaCl, 0.5 mM EDTA, 0.5% (v/v) Triton X-100, 1 mM phenylmethylsulfonyl fluoride, 10 μg/ml leupeptin, 2 μg/ml aprotinin, 0.1% (w/v) deoxycholic acid and 1 mM sodium orthovanadate. Samples of equal protein content were subjected to SDS-PAGE and immunoblot analysis was performed as previously described (Small et al., 2001, J. Biol. Chem. 276:32022-32030) using either a rabbit anti-Src [pY418] phosphospecific antibody (Biosource International), a rabbit anti-total Src antibody (Santa Cruz Biotechnology), a rabbit polyclonal anti-cortactin antibody (a gift from Dr. Xi Zhan, American Red Cross), or an anti-phosphotyrosine antibody (Upstate). Immunoprecipitation of cortactin was performed as previously described (Zhan et al., 1993, J. Biol. Chem. 268:24427-24431).

[5] = 5 nM sDl1 or 7.5 nM sJ1 for 24 hrs

In the case of “sJ1: Soluble Jagged1, amino acid residues about 1 to 1067 (SEQ ID NO:3) of full-length human Jagged1”, the “shift in sensitivity of secondary stem cells to instructive differentiation signals” value (NCSC populations [1]) is reported as “this shift in sensitivity to instructive differentiation signals was not observed”, the “F-actin stress fibers and focal adhesion sites” value [2] is reported as “significantly reduced actin stress fibers and focal adhesion sites” and the Glial-Only colonies (NCSC populations [3]; [5]) is reported as 0%. It also gave a Neuron-Containing colonies (NCSC populations [3]; [5]) of 71.4 ± 6.2%*, a Neuron-Only colonies (NCSC populations [3]; [5]) of 54.4 ± 8.4%* and a Glial-Only colonies (NCSC populations [3]; 7.5 nM sJ1 for 72 hrs) of 0.8 ± 1.4%*. For the same molecule, the Neuron-Containing colonies (NCSC populations [3]; 7.5 nM sJ1 for 72 hrs) was 74.8 ± 16.3%*, the Neuron-Only colonies (NCSC populations [3]; 7.5 nM sJ1 for 72 hrs) was 42.8 ± 6.6%* and the Glial-Only colonies (NCSC populations [3]; 7.5 nM sJ1 for 120 hrs) was 5.82 ± 3.4%*. For the same molecule, the Neuron-Containing colonies (NCSC populations [3]; 7.5 nM sJ1 for 120 hrs) was 52.01 ± 14.1%*, the Neuron-Only colonies (NCSC populations [3]; 7.5 nM sJ1 for 120 hrs) was 13.43 ± 6.5%* and the Glial-Only colonies (NCSC populations [3]; 7.5 nM sJ1 for 168 hrs) was 13.3 ± 4.5%*. For the same molecule, the Neuron-Containing colonies (NCSC populations [3]; 7.5 nM sJ1 for 168 hrs) was 35.03 ± 9.1%, the Neuron-Only colonies (NCSC populations [3]; 7.5 nM sJ1 for 168 hrs) was 6.5 ± 1.3%* and the “CSL1-dependent transcription, level relative to control” value [4] was “approximately 25 % of the control level”. The “level of active Src” value (Src) was “increase in the level of active Src”.

thrombin was tested, and the “shift in sensitivity of secondary stem cells to instructive differentiation signals” value (NCSC populations [1]) was “this shift in sensitivity to instructive differentiation signals was not observed”, the “effect on Notch-dependent CSL1 activity” value ([4]; full-length Jagged1 NIH 3T3 cell transfectants) was “able to reduce the level of Notch-dependent CSL1 activity in a dose-dependent manner” and the “CSL1-dependent transcription, level relative to control” value [4] was “approximately 75 % of the control level”.

B1: sDl1: soluble non-transmembrane form (extracellular domain) of the Notch ligand Delta1 (protein)
chain: QVWSSGVFELKLQEFVNKKGLLGNRNCCRGGAGPPPCACRTFFRVCLKHYQASVSPEPPCTYGSAVTPVLGVDSFSLPDGGGADSAFSNPIRFPFGFTWPGTFSLIIEALHTDSPDDLATENPERLISRLATQRHLTVGEEWSQDLHSSGRTDLKYSYRFVCDEHYYGEGCSVFCRPRDDAFGHFTCGERGEKVCNPGWKGPYCTEPICLPGCDEQHGFCDKPGECKCRVGWQGRYCDECIRYPGCLHGTCQQPWQCNCQEGWGGLFCNQDLNYCTHHKPCKNGATCTNTGQGSYTCSCRPGYTGATCELGIDECDPSPCKNGGSCTDLENSYSCTCPPGFYGKICELSAMTCADGPCFNGGRCSDSPDGGYSCRCPVGYSGFNCEKKIDYCSSSPCSNGAKCVDLGDAYLCRCQAGFSGRHCDDNVDDCASSPCANGGTCRDGVNDFSCTCPPGYTGRNCSAPVSRCEHAPCHNGATCHERGHRYVCECARGYGGPNCQFLLPELPPGPAVVDLTEKLEGQGGPFPW
modifications: left off: small tags and cut ends
notes: soluble non-transmembrane form (extracellular domain) of the Notch ligand Delta1
With B1 the “F-actin stress fibers and focal adhesion sites” value [2] was “normal levels of F-actin stress fibers and focal adhesion sites”, the Glial-Only colonies (NCSC populations [3]; [5]) was 57.8 ± 9.9% and the Neuron-Containing colonies (NCSC populations [3]; [5]) was 7.0 ± 5.7%. The Neuron-Only colonies (NCSC populations [3]; [5]) was 0% and the “level of active Src” value (Src) was “increase in the level of active Src”.
